Measured values taken from patent publication US9951077B2, “Aminopyridazinone compounds as protein kinase inhibitors” (ETERNITY BIOSCIENCE INC., priority 2014, dated 2018).

Biological target: Btk (Homo sapiens (Human), UniProt Q06187)
Assay: Btk kinase assay (ADP-Glo)
Type: biochemical
Details: ATP 1.2 μM, 60 minutes, room temperature; read-out: BTK enzyme IC50
Experimental: The Btk kinase assay was performed using a ADP-Glo Btk kinase assay kit purchased from Promega (Madison, Wis.). The assay was conducted according to the protocols provided in the assay kit. In brief, the enzyme reaction was carried out in the kinase reaction buffer containing Btk (2 ng/μl), ATP (1.2 μM), poly GT peptide (0.3 μM), DTT (40 nM), MnCl2 (1.4 mM), and 1×kinase buffer (included in the kit) in the presence or absence of the tested articles at various concentrations in 384-well plate at room temperature (22±1° C.) for 60 minutes. The final reaction volume for each reaction was 10 μl. Then, 4 μl of ADP-Glo reagent (included in the kit) was added into the reaction and the plate was further incubated for another 40 minutes to terminate the reaction and deplete the remaining ATP. Finally, 10 μl of the kinase detection reagent was added into each reaction to simultaneously convert ADP to ATP and allow the newly synthesized ATP to be measured by a plate-reading luminometer (Victor X5 2030 multilabel reader, PerkinElmer). IC50 value was calculated using appropriate programs in GraphPad Prism by plotting the logarithm of the concentration versus percent inhibition as compared with a vehicle (DMSO) control.

Sequence of Btk (Q06187 whole entry): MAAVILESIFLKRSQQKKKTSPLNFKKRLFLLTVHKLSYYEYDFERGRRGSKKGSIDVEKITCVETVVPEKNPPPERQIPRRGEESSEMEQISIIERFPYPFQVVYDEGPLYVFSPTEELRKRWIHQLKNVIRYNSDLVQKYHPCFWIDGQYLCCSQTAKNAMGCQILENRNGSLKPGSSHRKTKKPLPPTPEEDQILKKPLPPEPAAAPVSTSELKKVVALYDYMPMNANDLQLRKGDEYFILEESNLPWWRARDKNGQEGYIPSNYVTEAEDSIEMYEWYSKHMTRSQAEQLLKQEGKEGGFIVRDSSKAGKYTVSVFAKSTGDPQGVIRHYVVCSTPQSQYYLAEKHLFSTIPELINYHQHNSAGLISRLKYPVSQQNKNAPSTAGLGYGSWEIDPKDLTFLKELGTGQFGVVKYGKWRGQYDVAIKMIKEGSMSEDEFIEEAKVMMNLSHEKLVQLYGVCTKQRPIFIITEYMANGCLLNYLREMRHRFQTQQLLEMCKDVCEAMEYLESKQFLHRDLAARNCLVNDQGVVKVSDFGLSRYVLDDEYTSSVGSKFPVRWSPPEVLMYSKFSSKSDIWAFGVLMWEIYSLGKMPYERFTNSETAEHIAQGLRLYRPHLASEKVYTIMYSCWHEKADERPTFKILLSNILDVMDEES

| Structure (SMILES) | IC50 |
| --- | --- |
| C=CC(=O)N1CCC[C@@H](n2cc(-c3ccc(Oc4ccccc4)cc3)c3c(N)n[nH]c(=O)c32)C1 [Example 1, (R)-1-(1-acryloylpiperidin-3-yl)-4-amino-3-(4-phenoxyphenyl)-1H-pyrrolo[2,3-d]pyridazin-7(6H)-one] | ≤ 10 nM |
| C=CC(=O)N1CC[C@H](n2cc(-c3ccc(Oc4ccccc4)cc3)c3c(N)n[nH]c(=O)c32)C1 [Example 3, 4-amino-3-(4-phenoxyphenyl)-1-[(3S)-1-prop-2-enoylpyrrolidin-3-yl]-6H-pyrrolo[2,3-d]pyridazin-7-one] | 10 to 1000 nM |
| C=CC(=O)N1CC[C@@H](n2cc(-c3ccc(Oc4ccccc4)cc3)c3c(N)n[nH]c(=O)c32)C1 [Example 4, 4-amino-3-(4-phenoxyphenyl)-1-[(3R)-1-prop-2-enoylpyrrolidin-3-yl]-6H-pyrrolo[2,3-d]pyridazin-7-one] | 10 to 1000 nM |
| C=CC(=O)N1CCC[C@@H]1Cn1cc(-c2ccc(Oc3ccccc3)cc2)c2c(N)n[nH]c(=O)c21 [Example 7, 4-amino-3-(4-phenoxyphenyl)-1-[[(2R)-1-prop-2-enoylpyrrolidin-2-yl]methyl]-6H-pyrrolo[2,3-d]pyridazin-7-one] | 1000 to 100000 nM |
| C=CC(=O)N1CCC(n2cc(-c3ccc(Oc4ccccc4)cc3)c3c(N)n[nH]c(=O)c32)CC1 [Example 9, 4-amino-3-(4-phenoxyphenyl)-1-(1-prop-2-enoyl-4-piperidyl)-6H-pyrrolo[2,3-d]pyridazin-7-one] | 1000 to 100000 nM |
| CN(C/C=C/C(=O)N1CCC[C@@H](n2cc(-c3ccc(Oc4ccccc4)cc3)c3c(N)n[nH]c(=O)c32)C1)C(=O)OC(C)(C)C [Example 17, tert-butyl N-[(E)-4-[(3R)-3-[4-amino-7-oxo-3-(4-phenoxyphenyl)-6H-pyrrolo[2,3-d]pyridazin-1-yl]-1-piperidyl]-4-oxo-but-2-enyl]-N-methyl-carbamate] | 10 to 1000 nM |
| CCC(=O)N1CCCC(n2cc(-c3ccc(Oc4ccccc4)cc3)c3c(N)n[nH]c(=O)c32)C1 (centres unmarked) [Example 19, 4-amino-3-(4-phenoxyphenyl)-1-(1-propionylpiperidin-3-yl)-1H-pyrrolo[2,3-d]pyridazin-7(6H)-one] | 10 to 1000 nM |
| N#CN1CCC[C@@H](n2cc(-c3ccc(Oc4ccccc4)cc3)c3c(N)n[nH]c(=O)c32)C1 [Example 20, (R)-3-(4-amino-7-oxo-3-(4-phenoxyphenyl)-6,7-dihydro-1H-pyrrolo[2,3-d]pyridazin-1-yl)piperidine-1-carbonitrile] | 10 to 1000 nM |
| CC#CC(=O)N1CCCC(n2cc(-c3ccc(Oc4ccccc4)cc3)c3c(N)n[nH]c(=O)c32)C1 (centres unmarked) [Example 21, 4-amino-1-(1-(but-2-ynoyl)piperidin-3-yl)-3-(4-phenoxyphenyl)-1H-pyrrolo[2,3-d]pyridazin-7(6H)-one] | 1000 to 100000 nM |
| Nc1n[nH]c(=O)c2c1c(-c1ccc(Oc3ccccc3)cc1)cn2[C@@H]1CCCN(C(=O)CCl)C1 [Example 22, 4-amino-1-[(3R)-1-(2-chloroacetyl)-3-piperidyl]-3-(4-phenoxyphenyl)-6H-pyrrolo[2,3-d]pyridazin-7-one] | 10 to 1000 nM |
| Nc1n[nH]c(=O)c2c1c(-c1ccc(Oc3ccccc3)cc1)cn2[C@@H]1CCCN(C(=O)C2CC2)C1 [Example 23, 4-amino-1-[(3R)-1-(cyclopropanecarbonyl)-3-piperidyl]-3-(4-phenoxyphenyl)-6H-pyrrolo[2,3-d]pyridazin-7-one] | 10 to 1000 nM |
| N#CCC(=O)N1CCC[C@@H](n2cc(-c3ccc(Oc4ccccc4)cc3)c3c(N)n[nH]c(=O)c32)C1 [Example 24, 3-[(3R)-3-[4-amino-7-oxo-3-(4-phenoxyphenyl)-6H-pyrrolo[2,3-d]pyridazin-1-yl]-1-piperidyl]-3-oxo-propanenitrile] | 10 to 1000 nM |
| C/C=C/C(=O)N1CCC[C@@H](n2cc(-c3ccc(Oc4ccccc4)cc3)c3c(N)n[nH]c(=O)c32)C1 [Example 25, 4-amino-1-[(3R)-1-[(E)-but-2-enoyl]-3-piperidyl]-3-(4-phenoxyphenyl)-6H-pyrrolo[2,3-d]pyridazin-7-one] | 10 to 1000 nM |
| CN(C/C=C/C(=O)N1CCC[C@@H](n2cc(-c3ccc(Oc4ccccc4)cc3)c3c(N)n[nH]c(=O)c32)C1)C1CC1 [Example 29, 4-amino-1-[(3R)-1-[(E)-4-(cyclopropyl(methyl)amino)but-2-enoyl]-3-piperidyl]-3-(4-phenoxyphenyl)-6H-pyrrolo[2,3-d]pyridazin-7-one] | 10 to 1000 nM |
| CCN(C/C=C/C(=O)N1CCC[C@@H](n2cc(-c3ccc(Oc4ccccc4)cc3)c3c(N)n[nH]c(=O)c32)C1)C1CC1 [Example 30, 4-amino-1-[(3R)-1-[(E)-4-[cyclopropyl(ethyl)amino]but-2-enoyl]-3-piperidyl]-3-(4-phenoxyphenyl)-6H-pyrrolo[2,3-d]pyridazin-7-one] | 10 to 1000 nM |

Results, then the compound that gave them:

| IC50 | Structure (SMILES) |
| --- | --- |
| 10 to 1000 nM | C=CC(=O)N1CC(n2cc(-c3ccc(Oc4ccccc4)cc3)c3c(N)n[nH]c(=O)c32)C1 [Example 5, 4-amino-3-(4-phenoxyphenyl)-1-(1-prop-2-enoylazetidin-3-yl)-6H-pyrrolo[2,3-d]pyridazin-7-one] |
| 10 to 1000 nM | C=CC(=O)N1CCC[C@H]1Cn1cc(-c2ccc(Oc3ccccc3)cc2)c2c(N)n[nH]c(=O)c21 [Example 6, 4-amino-3-(4-phenoxyphenyl)-1-[[(2S)-1-prop-2-enoylpyrrolidin-2-yl]methyl]-6H-pyrrolo[2,3-d]pyridazin-7-one] |
| 10 to 1000 nM | C=CC(=O)N1CCC(Cn2cc(-c3ccc(Oc4ccccc4)cc3)c3c(N)n[nH]c(=O)c32)C1 (centres unmarked) [Example 8, 4-amino-3-(4-phenoxyphenyl)-1-[(1-prop-2-enoylpyrrolidin-3-yl)methyl]-6H-pyrrolo[2,3-d]pyridazin-7-one] |
| 10 to 1000 nM | C=CC(=O)N1CCC(Cn2cc(-c3ccc(Oc4ccccc4)cc3)c3c(N)n[nH]c(=O)c32)CC1 [Example 10, 4-amino-3-(4-phenoxyphenyl)-1-[(1-prop-2-enoyl-4-piperidyl)methyl]-6H-pyrrolo[2,3-d]pyridazin-7-one] |
| 10 to 1000 nM | C=CC(=O)N1CC(Cn2cc(-c3ccc(Oc4ccccc4)cc3)c3c(N)n[nH]c(=O)c32)C1 [Example 12, 4-amino-3-(4-phenoxyphenyl)-1-[(1-prop-2-enoylazetidin-3-yl)methyl]-6H-pyrrolo[2,3-d]pyridazin-7-one] |
| ≤ 10 nM | C=CC(=O)N1CCC(F)C(n2cc(-c3ccc(Oc4ccccc4)cc3)c3c(N)n[nH]c(=O)c32)C1 (centres unmarked) [Example 13, 1-(1-acryloyl-4-fluoropiperidin-3-yl)-4-amino-3-(4-phenoxyphenyl)-1H-pyrrolo[2,3-d]pyridazin-7(6H)-one] |
| ≤ 10 nM | C=CC(=O)N1C[C@H](n2cc(-c3ccc(Oc4ccccc4)cc3)c3c(N)n[nH]c(=O)c32)CC(F)(F)C1 [Example 14, (R)-1-(1-acryloyl-5,5-difluoropiperidin-3-yl)-4-amino-3-(4-phenoxyphenyl)-1H-pyrrolo[2,3-d]pyridazin-7(6H)-one] |
| 10 to 1000 nM | C=CC(=O)NC1C2CCC1CC(n1cc(-c3ccc(Oc4ccccc4)cc3)c3c(N)n[nH]c(=O)c31)C2 (centres unmarked) [Example 15, N-(3-(4-amino-7-oxo-3-(4-phenoxyphenyl)-6,7-dihydro-1H-pyrrolo[2,3-d]pyridazin-1-yl)bicyclo[3.2.1]octan-8-yl)acrylamide] |
| ≤ 10 nM | CC(C)N(C)C/C=C/C(=O)N1CCC[C@@H](n2cc(-c3ccc(Oc4ccccc4)cc3)c3c(N)n[nH]c(=O)c32)C1 [Example 16, 4-amino-1-[(3R)-1-[(E)-4-[isopropyl(methyl)amino]but-2-enoyl]-3-piperidyl]-3-(4-phenoxyphenyl)-6H-pyrrolo[2,3-d]pyridazin-7-one] |
| ≤ 10 nM | CNC/C=C/C(=O)N1CCC[C@@H](n2cc(-c3ccc(Oc4ccccc4)cc3)c3c(N)n[nH]c(=O)c32)C1 [Example 18, 4-amino-1-[(3R)-1-[(E)-4-(methylamino)but-2-enoyl]-3-piperidyl]-3-(4-phenoxyphenyl)-6H-pyrrolo[2,3-d]pyridazin-7-one] |
| ≤ 10 nM | CN(C)C/C=C/C(=O)N1CCC[C@@H](n2cc(-c3ccc(Oc4ccccc4)cc3)c3c(N)n[nH]c(=O)c32)C1 [Example 26, 4-amino-1-[(3R)-1-[(E)-4-(dimethylamino)but-2-enoyl]-3-piperidyl]-3-(4-phenoxyphenyl)-6H-pyrrolo[2,3-d]pyridazin-7-one] |
| ≤ 10 nM | CCN(CC)C/C=C/C(=O)N1CCC[C@@H](n2cc(-c3ccc(Oc4ccccc4)cc3)c3c(N)n[nH]c(=O)c32)C1 [Example 27, 4-amino-1-[(3R)-1-[(E)-4-(diethylamino)but-2-enoyl]-3-piperidyl]-3-(4-phenoxyphenyl)-6H-pyrrolo[2,3-d]pyridazin-7-one] |
| ≤ 10 nM | Nc1n[nH]c(=O)c2c1c(-c1ccc(Oc3ccccc3)cc1)cn2[C@@H]1CCCN(C(=O)/C=C/CNC2CC2)C1 [Example 28, 4-amino-1-[(3R)-1-[(E)-4-(cyclopropylamino)but-2-enoyl]-3-piperidyl]-3-(4-phenoxyphenyl)-6H-pyrrolo[2,3-d]pyridazin-7-one] |
| ≤ 10 nM | CN(C/C=C/C(=O)N1CCC[C@@H](n2cc(-c3ccc(Oc4ccccc4)cc3)c3c(N)n[nH]c(=O)c32)C1)C1CCC1 [Example 31, 4-amino-1-[(3R)-1-[(E)-4-[cyclobutyl(methyl)amino]but-2-enoyl]-3-piperidyl]-3-(4-phenoxyphenyl)-6H-pyrrolo[2,3-d]pyridazin-7-one] |
